In general, TGI refers to the concentration giving total growth inhibition. High values mean less potent growth arrest, low ones more potent growth arrest.

This is an account of results in PubChem BioAssay (NCI).

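All cell lines were grown in 96-well plates and treated with compound for 48 hours. Definition used: TGI = concentration required for complete inhibition of growth.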 Bounds are passed on as bounds.

Common to all, as to assay: DTP human tumour cell line panel, 48 h
The subject of assay [1] is BT-549 breast.
The subject of assay [2] is COLO 205 colon.
Assay [3] deals with HCC-2998 colon.
In assay [4] the test system is HCT-116 colon.
Assay [5] relates to HCT-15 colon.
Assay [6] deals with NCI-H522 lung.
Assay [7] relates to SK-MEL-28 melanoma.
In assay [8] the test system is SNB-75 CNS.
For assay [9], the system named is U251 CNS.
In assay [10] the test system is UACC-257 melanoma.

For the molecule `COc1ccc(/C=c2\c(=O)[nH]c3nc4ccccc4c(=O)n23)cc1`, the TGI in [1], in [2], in assay [3], in [4], in assay [5] and in [6] was above 100 µM throughout. Besides, the TGI in [7], in [8], in assay [9] and in assay [10] was above 100 µM throughout.
For the molecule `COc1nc(N=P(c2ccccc2)(c2ccccc2)c2ccccc2)cc(=O)n1C`, the TGI in [1], in assay [2], in assay [3], in assay [4], in assay [5] and in [6] was above 100 µM in each case. Also, the TGI in assay [7], in [8], in [9] and in assay [10] was above 100 µM in each case.
`CC(C)(C)OC(=O)NC1CCCC1C(=O)C1=CCCC1` (stereo unspecified): the TGI in assay [1], in [2], in assay [3], in assay [4], in assay [5] and in assay [7] was above 100 µM in each case. In addition, the TGI in assay [8], in assay [9] and in assay [10] was above 100 µM each time.
With `CCN(CC)CCCNc1c2c(Cl)cc(Cl)cc2nc2nc(=O)[nH]c(C)c12`, the TGI in assay [1] is above 100 µM; in assay [2] it was above 100 µM; in [3] it was 51 µM; in assay [4] it was 36.9 µM; in [5], above 100 µM; in assay [6], 46.9 µM. Moreover, the TGI in [7] is 95.2 µM; in assay [9] it was 33.9 µM; in assay [10], above 100 µM.
For `O=c1[nH]/c(=C/c2ccc3c(c2)OCO3)c(=O)[nH]/c1=C/c1ccc2c(c1)OCO2`, the TGI in assay [1], in assay [2], in [3], in [4], in assay [5] and in [6] was above 10 µM throughout. The TGI in assay [7], in [8], in assay [9] and in [10] was above 10 µM throughout.
As for `CC(C)Oc1c(C2(c3ccccc3)SCCCS2)c(=O)c1=O`, the TGI was above 100 µM in assay [1]; above 100 µM in assay [2]; above 100 µM in assay [4]; above 100 µM in [5]; 97.3 µM in assay [6]; above 100 µM in [7]. In addition, the TGI in [8], in [9] and in assay [10] was above 100 µM in each case.
As to `O=c1[nH]nc(Cc2ccccc2)n1/N=C/c1cccs1`, the TGI in assay [1], in assay [2], in [3], in [4], in assay [5] and in assay [7] was above 100 µM in each case. The TGI in assay [8], in assay [9] and in assay [10] was above 100 µM throughout.
`C=CCCC1(O)C(O)C(CO)O[C@H](O[C@@]2(CO)OC(CO)C(O)C2O)C1O` (stereo partly specified): the TGI in [1], in assay [2], in [4], in assay [5], in [6] and in assay [7] was above 100 µM each time. Also, the TGI in [8], in assay [9] and in assay [10] was above 100 µM in each case.
Regarding `CCc1n[nH]c(=O)n1CCCCCCCCn1c(CC)n[nH]c1=O`, the TGI in [1], in assay [2], in assay [3], in assay [4], in assay [5] and in assay [6] was above 100 µM each time. Also, the TGI in assay [8], in assay [9] and in [10] was above 100 µM each time.
For `CCCCOCCOCCOC1=CC(=O)c2c(O)ccc(O)c2C1=O`, the TGI in assay [1] is 3.16 µM; in assay [2], 2.74 µM; in [3] it was 3.25 µM; in assay [4], 3.22 µM; in [6], 2.99 µM; in assay [7], 2.95 µM. The total growth inhibition concentration (TGI) in assay [9] was 3.29 µM; in [10], 2.97 µM.
Regarding `CN(C)CCN(C)P12(Oc3ccccc3O1)Oc1c(Cl)c(Cl)c(Cl)c(Cl)c1O2`, the TGI in assay [1], in [2], in assay [3], in assay [4], in [5] and in [7] was above 100 µM in each case. Moreover, the figures for the TGI in assay [8], in assay [9] and in assay [10] were 82 µM, above 100 µM and 85.5 µM, respectively.
`C1CNOCCCONCCCNOCCCONC1`: the TGI in assay [1], in [2], in assay [4], in [5], in [6] and in assay [7] was above 100 µM each time. For the same molecule, the TGI in assay [8], in assay [9] and in [10] was above 100 µM in each case.
Consider `FC(F)(F)c1ccccc1C1SCC2=Nc3ccccc3CN21` (stereo unspecified), for which the TGI was determined as 44.2 µM in assay [1]; 25 µM in [2]; 27.6 µM in [3]; 23.1 µM in [4]; 27.1 µM in [5]; 58.2 µM in assay [7]. In addition, the TGI in [8] was 36.5 µM; in assay [9], above 100 µM; in assay [10], 36.6 µM.
Turning to `CSc1ncnc2c1cnn2Cc1cn(COCCO)nn1`, the TGI in assay [1], in [2], in assay [3], in [4], in assay [5] and in [7] was above 100 µM throughout. Moreover, the total growth inhibition concentration (TGI) in assay [9] and in assay [10] was above 100 µM throughout.
With `COc1ccc(Nc2nc3ccccc3n3cccc23)cc1OC`, the TGI in assay [1] is 49.3 µM; in assay [2], 27.4 µM; in assay [3], 27.6 µM; in assay [4], 36.4 µM; in assay [5], 31.6 µM; in [6] it was 31.2 µM. Moreover, the TGI in [7] stood at 28.9 µM; in assay [9], 35.9 µM; in [10], 29.4 µM.
